Data reported in the kinase profiling compilation of Christmann-Franck et al. (2016).

Assays:
Experiment in all cases: radiometric filter-binding kinase assay, Kinase HotSpot
Conditions in all cases: compound 0.5 µM; ATP 10 µM
[1] = molecular target: MAPKAPK2 (human) (UniProt P49137)
[2] = molecular target: DYRK3 (human) (UniProt O43781)
[3] = molecular target: IRAK4 (human) (UniProt Q9NWZ3)
[4] = molecular target: ITK (human) (UniProt Q08881)
[5] = molecular target: IGF1R (human) (UniProt P08069)
[6] = molecular target: EPHA3 (human) (UniProt P29320)
[7] = molecular target: BMX (human) (UniProt P51813)
Chain of BMX (human) (P51813 whole entry, looked up): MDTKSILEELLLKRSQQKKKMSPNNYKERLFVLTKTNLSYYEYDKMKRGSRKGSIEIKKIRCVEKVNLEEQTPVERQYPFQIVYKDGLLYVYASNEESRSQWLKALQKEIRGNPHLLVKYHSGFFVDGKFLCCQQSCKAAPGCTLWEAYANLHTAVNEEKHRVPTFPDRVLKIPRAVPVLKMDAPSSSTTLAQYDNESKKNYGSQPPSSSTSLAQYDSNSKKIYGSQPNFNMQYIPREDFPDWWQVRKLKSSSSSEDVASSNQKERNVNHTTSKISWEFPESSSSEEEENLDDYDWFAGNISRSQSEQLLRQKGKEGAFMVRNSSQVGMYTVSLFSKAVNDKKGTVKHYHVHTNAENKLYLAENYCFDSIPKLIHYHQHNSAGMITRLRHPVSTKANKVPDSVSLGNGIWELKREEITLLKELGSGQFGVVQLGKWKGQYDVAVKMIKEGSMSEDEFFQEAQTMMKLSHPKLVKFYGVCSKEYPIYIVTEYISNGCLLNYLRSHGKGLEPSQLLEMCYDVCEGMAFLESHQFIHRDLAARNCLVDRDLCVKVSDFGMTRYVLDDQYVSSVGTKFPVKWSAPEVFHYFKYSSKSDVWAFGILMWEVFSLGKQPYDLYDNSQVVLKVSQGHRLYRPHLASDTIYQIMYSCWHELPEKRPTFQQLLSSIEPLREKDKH

[8] = molecular target: STK39 (human) (UniProt Q9UEW8)
[9] = molecular target: TNK2 (human) (UniProt Q07912)
[10] = molecular target: PIM3 (human) (UniProt Q86V86)
[11] = molecular target: CAMK2G (human) (UniProt Q13555)
Chain of CAMK2G (human) (Q13555 whole entry, looked up): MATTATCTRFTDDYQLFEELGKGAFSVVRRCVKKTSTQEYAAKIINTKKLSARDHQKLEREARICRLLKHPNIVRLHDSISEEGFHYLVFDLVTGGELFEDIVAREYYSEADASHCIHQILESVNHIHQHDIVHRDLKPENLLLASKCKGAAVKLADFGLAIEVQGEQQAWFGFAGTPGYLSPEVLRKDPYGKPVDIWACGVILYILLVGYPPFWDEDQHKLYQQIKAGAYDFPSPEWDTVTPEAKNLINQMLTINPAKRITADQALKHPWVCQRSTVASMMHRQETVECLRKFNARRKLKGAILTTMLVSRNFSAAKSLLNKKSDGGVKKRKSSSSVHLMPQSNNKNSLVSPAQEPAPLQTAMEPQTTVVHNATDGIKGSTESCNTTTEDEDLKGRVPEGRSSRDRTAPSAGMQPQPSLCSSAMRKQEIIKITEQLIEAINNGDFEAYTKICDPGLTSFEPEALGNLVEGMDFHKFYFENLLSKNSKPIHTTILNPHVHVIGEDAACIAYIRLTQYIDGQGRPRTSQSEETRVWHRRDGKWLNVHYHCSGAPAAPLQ

[12] = molecular target: MINK1 (human) (UniProt Q8N4C8)
[13] = molecular target: PRKCB2 (human) (UniProt P05771)
[14] = molecular target: PBK (human) (UniProt Q96KB5)
[15] = molecular target: PRKD1 (human) (UniProt Q15139)
[16] = molecular target: SRC (human) (UniProt P12931)
[17] = molecular target: WNK2 (human) (UniProt Q9Y3S1)
[18] = molecular target: MUSK (human) (UniProt O15146)
[19] = molecular target: YES1 (human) (UniProt P07947)
Chain of YES1 (human) (P07947 whole entry, looked up): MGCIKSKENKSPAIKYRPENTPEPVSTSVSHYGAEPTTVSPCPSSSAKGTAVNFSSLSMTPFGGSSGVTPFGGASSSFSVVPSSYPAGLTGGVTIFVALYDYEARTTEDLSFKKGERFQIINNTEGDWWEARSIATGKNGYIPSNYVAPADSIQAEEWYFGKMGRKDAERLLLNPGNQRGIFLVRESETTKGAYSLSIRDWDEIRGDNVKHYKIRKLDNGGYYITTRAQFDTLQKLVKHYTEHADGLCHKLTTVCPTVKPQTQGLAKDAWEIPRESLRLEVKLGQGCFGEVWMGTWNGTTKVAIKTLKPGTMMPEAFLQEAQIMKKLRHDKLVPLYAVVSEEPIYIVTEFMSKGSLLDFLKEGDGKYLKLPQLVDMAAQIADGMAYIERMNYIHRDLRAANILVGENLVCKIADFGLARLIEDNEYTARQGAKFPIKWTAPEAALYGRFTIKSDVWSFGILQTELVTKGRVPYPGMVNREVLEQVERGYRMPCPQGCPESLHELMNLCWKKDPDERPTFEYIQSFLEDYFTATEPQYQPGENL

[20] = molecular target: CDK2 CCNE1 (human) (UniProt P24941+P24864)
[21] = molecular target: PKN1 (human) (UniProt Q16512)
[22] = molecular target: NEK11 (human) (UniProt Q8NG66)
Chain of NEK11 (human) (Q8NG66 whole entry, looked up): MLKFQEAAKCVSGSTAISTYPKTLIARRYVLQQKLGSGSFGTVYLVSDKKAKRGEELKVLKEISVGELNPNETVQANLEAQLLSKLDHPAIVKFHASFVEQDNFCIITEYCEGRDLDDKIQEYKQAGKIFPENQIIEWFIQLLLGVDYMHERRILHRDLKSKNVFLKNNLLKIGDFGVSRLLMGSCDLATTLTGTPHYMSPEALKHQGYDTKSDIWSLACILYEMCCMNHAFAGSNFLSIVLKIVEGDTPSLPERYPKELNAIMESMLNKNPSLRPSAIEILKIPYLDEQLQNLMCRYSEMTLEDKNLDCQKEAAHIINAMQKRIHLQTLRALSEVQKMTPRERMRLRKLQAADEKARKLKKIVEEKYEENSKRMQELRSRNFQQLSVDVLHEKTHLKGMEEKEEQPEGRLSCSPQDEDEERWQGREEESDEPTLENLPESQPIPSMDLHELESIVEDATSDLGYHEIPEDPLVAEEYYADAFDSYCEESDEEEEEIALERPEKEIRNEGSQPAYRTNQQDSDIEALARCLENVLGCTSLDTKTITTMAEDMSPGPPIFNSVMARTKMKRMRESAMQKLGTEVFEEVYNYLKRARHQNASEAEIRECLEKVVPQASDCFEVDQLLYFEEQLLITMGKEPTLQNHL

[23] = molecular target: CDK6 CCND3 (human) (UniProt P30281+Q00534)
[24] = molecular target: CAMK2A (human) (UniProt Q9UQM7)
[25] = molecular target: ROCK2 (human) (UniProt O75116)
[26] = molecular target: SLK (human) (UniProt Q9H2G2)
[27] = molecular target: MAP4K2 (human) (UniProt Q12851)
[28] = molecular target: MAP2K2 (human) (UniProt P36507)
[29] = molecular target: RPS6KA3 KD1 KD2 (human) (UniProt P51812)
[30] = molecular target: GSG2 (human) (UniProt Q8TF76)
[31] = molecular target: PAK1 (human) (UniProt Q13153)
[32] = molecular target: MAPK1 (human) (UniProt P28482)
[33] = molecular target: RPS6KA4 KD2 (human) (UniProt O75676)
[34] = molecular target: TYK2 JH1 catalytic (human) (UniProt P29597)
Chain of TYK2 JH1 catalytic (human) (P29597 whole entry, looked up): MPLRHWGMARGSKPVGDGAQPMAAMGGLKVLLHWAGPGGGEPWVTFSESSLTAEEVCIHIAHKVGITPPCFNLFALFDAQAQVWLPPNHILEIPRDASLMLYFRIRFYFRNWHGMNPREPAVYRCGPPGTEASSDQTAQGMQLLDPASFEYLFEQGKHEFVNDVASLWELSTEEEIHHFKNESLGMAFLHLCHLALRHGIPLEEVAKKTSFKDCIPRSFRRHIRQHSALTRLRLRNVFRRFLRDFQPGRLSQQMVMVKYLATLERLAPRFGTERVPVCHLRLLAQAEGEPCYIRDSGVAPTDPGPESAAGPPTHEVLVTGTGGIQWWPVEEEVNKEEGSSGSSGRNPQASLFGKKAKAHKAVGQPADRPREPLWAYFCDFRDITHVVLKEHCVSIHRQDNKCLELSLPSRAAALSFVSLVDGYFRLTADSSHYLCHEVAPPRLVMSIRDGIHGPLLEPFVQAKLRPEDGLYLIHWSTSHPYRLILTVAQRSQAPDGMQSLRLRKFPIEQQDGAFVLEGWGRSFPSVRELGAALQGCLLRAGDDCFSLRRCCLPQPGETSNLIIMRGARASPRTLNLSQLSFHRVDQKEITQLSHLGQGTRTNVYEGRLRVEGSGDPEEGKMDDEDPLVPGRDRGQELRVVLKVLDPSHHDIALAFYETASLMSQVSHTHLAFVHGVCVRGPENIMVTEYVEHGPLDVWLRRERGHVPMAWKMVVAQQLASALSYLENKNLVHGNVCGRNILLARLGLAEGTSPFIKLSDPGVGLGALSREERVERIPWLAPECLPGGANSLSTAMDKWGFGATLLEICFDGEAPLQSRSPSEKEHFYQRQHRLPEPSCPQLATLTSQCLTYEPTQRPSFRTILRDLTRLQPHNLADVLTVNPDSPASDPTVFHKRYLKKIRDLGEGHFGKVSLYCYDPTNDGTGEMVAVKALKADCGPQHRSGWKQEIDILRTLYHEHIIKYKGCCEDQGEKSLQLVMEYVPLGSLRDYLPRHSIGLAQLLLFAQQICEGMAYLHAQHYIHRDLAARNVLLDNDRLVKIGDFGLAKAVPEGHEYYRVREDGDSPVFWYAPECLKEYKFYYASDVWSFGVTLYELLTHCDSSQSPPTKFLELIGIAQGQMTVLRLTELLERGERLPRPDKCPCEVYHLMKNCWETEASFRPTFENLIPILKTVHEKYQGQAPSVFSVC

[35] = molecular target: MAP4K4 (human) (UniProt O95819)
Chain of MAP4K4 (human) (O95819 whole entry, looked up): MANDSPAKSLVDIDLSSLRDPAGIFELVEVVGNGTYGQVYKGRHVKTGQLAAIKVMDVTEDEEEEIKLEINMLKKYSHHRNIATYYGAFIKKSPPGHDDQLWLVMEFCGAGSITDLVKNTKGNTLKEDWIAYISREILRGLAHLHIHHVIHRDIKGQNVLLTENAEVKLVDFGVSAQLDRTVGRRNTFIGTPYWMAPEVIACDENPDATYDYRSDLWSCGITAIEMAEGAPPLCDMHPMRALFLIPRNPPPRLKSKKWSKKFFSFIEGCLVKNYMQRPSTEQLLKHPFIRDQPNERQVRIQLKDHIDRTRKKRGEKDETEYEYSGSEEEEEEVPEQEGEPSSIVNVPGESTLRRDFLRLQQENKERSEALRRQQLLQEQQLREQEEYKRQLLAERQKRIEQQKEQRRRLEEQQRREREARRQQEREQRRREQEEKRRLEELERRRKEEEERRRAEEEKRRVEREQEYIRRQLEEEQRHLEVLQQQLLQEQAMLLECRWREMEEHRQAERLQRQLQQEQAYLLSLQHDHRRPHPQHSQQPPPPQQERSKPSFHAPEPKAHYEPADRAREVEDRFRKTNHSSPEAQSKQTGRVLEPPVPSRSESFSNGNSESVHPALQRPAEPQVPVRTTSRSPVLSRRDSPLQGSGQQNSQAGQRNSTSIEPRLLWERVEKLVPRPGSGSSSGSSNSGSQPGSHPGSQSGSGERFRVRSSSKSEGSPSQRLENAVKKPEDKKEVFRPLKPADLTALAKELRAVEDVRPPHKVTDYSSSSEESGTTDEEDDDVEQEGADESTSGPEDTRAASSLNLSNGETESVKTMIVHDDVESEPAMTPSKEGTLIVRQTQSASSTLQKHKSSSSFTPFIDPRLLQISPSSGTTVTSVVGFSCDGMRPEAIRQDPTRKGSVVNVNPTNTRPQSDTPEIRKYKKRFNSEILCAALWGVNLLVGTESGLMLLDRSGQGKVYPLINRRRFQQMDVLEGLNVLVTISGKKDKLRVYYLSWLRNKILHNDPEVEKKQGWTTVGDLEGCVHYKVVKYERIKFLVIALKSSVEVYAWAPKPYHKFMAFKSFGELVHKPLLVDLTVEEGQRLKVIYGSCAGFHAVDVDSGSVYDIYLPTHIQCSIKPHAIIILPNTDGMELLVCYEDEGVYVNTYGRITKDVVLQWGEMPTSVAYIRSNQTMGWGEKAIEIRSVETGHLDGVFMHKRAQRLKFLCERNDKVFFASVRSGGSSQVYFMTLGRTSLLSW

[36] = molecular target: FER (human) (UniProt P16591)
[37] = molecular target: MST1R (human) (UniProt Q04912)
[38] = molecular target: ROCK1 (human) (UniProt Q13464)
[39] = molecular target: MAP2K1 (human) (UniProt Q02750)
[40] = molecular target: MATK (human) (UniProt P42679)
[41] = molecular target: PTK2 (human) (UniProt Q05397)

With `Clc1ccc(Nc2nnc(Cc3ccncc3)c3ccccc23)cc1` the residual activity [1] was 98.8%, the residual activity [2] was 95.9% and the residual activity [3] was 85.1%. For the same molecule, the residual activity [4] was 103%, the residual activity [5] was 108% and the residual activity [6] was 98.8%. It also gave a residual activity [7] of 106%, a residual activity [8] of 92.6% and a residual activity [9] of 91.7%. It also gave a residual activity [10] of 98.9%, a residual activity [11] of 115% and a residual activity [12] of 104%. It also gave a residual activity [13] of 97.2%, a residual activity [14] of 108% and a residual activity [15] of 101%. For the same molecule, the residual activity [16] was 104%, the residual activity [17] was 96.3% and the residual activity [18] was 105%. For the same molecule, the residual activity [19] was 93%, the residual activity [20] was 94.5% and the residual activity [21] was 95.9%. It also gave a residual activity [22] of 87%, a residual activity [23] of 125% and a residual activity [24] of 93.2%. The residual activity [25] was 95.4%, the residual activity [26] was 94.2% and the residual activity [27] was 107%. It also gave a residual activity [28] of 100%, a residual activity [29] of 101% and a residual activity [30] of 70%. The residual activity [31] was 116%, the residual activity [32] was 87.6% and the residual activity [33] was 98%. It also gave a residual activity [34] of 89.4%, a residual activity [35] of 107% and a residual activity [36] of 91.4%. The residual activity [37] was 91.6%, the residual activity [38] was 110% and the residual activity [39] was 100%. The residual activity [40] was 78.1% and the residual activity [41] was 101%.
